The target of the test is Dopamine receptor (Bos taurus, UniProt Q95136+P20288). Description: Evaluated for the inhibition of binding of [3H]DA (dopamine) to dopamine receptor in calf striatal homogenate.

The structures appear in SMILES notation.

Broadly, the IC50 is the point on the concentration scale where inhibition reaches its midpoint. The low end stands for higher potency, the high end for lower potency.

Take `NC1CCc2cc(O)c(O)cc2C1` (stereo unspecified): the IC50 is listed as 6 nM.

The values are drawn from ChEMBL document CHEMBL1122198, “Synthesis and dopamine receptor binding of exo- and endo-2-amino-6,7-dihydroxybenzonorbornene, rigid analogues of 2-amino-6,7-dihydroxytetrahydronaphthalene” (J Med Chem, 1982).
